Source: US20160237502A1, “MARKERS FOR LIPID METABOLISM” (priority 2014, published 2016)
Entries after “also recorded” stand apart in the source; their conditions may differ.

Legend:
[1] = test system: alh-6 mutants; conditions: NAC treatment, previous study; cited from earlier work
[2] = test system: alh-6 mutant worms; experiment: Fat content during fasting measured by Nile Red staining; assay type: in vivo, C. elegans; conditions: NAC-treated alh-6 mutant worms
Procedure: For starvation, synchronized L1 animals were added to nematode growth medium (NGM) plates seeded with indicated bacteria. After 2 days at 20° C., L4 animals were collected, washed with M9 buffer at least three times and then subjected to fasting in M9 liquid with shaking for indicated time before collection for further analysis. Starvation survival assay was performed as previous described (Artyukhin et al., Sci. Rep.; 3, 2777; 2013). […] After 24 h, synchronized L1 animals were resuspended in M9 at a concentration of two worms per microliter. Starvation culture was mixed by constant rocking. Every 2 days, a portion of animals was recovered on normal OP50-seeded NGM plates. Animals that resumed development were considered to be surviving.
Nile Red staining was performed as previously described (Pino, et al., J. Vis. Exp. 73; 2013). Briefly, animals of indicated genotypes were collected, fixed in 40% isopropanol at room temperature for 3 min and stained in 3 μg ml-1 Nile Red working solution in dark for 2 h. Worms were then washed with M9 for at least 30 min, mounted on slides and imaged under the green fluorescent protein channel of microscope Zeiss Axio Imager with Zen software package. Fluorescent density was measured using ImageJ software. Approximately ten animals from each experiment (n) were used to calculate the fluorescent density.

[3] = test system: SKN-1; experiment: SKN-1 transcriptional activity reporter gst-4p::GFP activation in worms; assay type: in vivo, C. elegans

Row | Compound | shortened lifespan of alh-6 mutants [1] | fat mobilization in response to fasting [2] | SKN-1 reporter activation induced by exposure to arsenite ([3]; gst-4p::GFP reporter, arsenite as inducer of oxidative stress, NAC treatment) | SKN-1 activation observed in fasted alh-6 mutants ([3]; gst-4p::GFP reporter, fasted alh-6 mutants, NAC treatment) | SKN-1 reporter activation ([3]; in vivo)
1 | CC(=O)N[C@@H](CS)C(=O)O [NAC, N-acetylcysteine] | completely abrogated the shortened lifespan | still exhibited accelerated fat mobilization | blocked the SKN-1 reporter activation; also recorded: inhibits arsenite (AS) induced SKN-1 reporter activation | no effect; also recorded: not activation when alh-6 mutants are fasted | 
2 | arsenite |  |  |  |  | SKN-1 reporter activation induced
